Columns and labels:
MCF-7, cancer cell line = test: MCF-7 growth inhibition (SRB or Sysmex cell counting); assay type: cell-based; details: SRB or CC assay
Tubulin = test: Inhibition of tubulin polymerisation; assay type: biochemical; details: tubulin concentration 10 μM; extent of assembly after 20 min incubation at 30° C.; read-out: Inhib. Tubulin polymerisation IC50
[1] = tested on: Human umbilical vein endothelial cells; test: Proliferation Assay - activated endothelium (MTT); assay type: cell-based; details: HUVEC, range within which the IC50 value falls, 48 hrs culture, read-out: Inhib activated HUVECs IC50
Protocol: Proliferation Assay—activated endothelium: Human umbilical vein endothelial cells (CC-2519, Clonetics) were plated at 2500 cells/well in EGM2 (CC-3162, Clonetics) in a 96 well plate in triplicate. Cells were cultured overnight at 37° C. 5% CO2. Medium was subsequently replaced with fresh medium including the compound or negative control. Cells were cultured for a period of 48 hrs. An MTT assay was performed to measure changes in cell numbers. Briefly, 20 μl of MTT reagent was added to cells containing 100 μl of EGM2 and incubated at 37° C. for 2 hours. Absorbance was measured at 492 nm.

MDA-MB-231 = MDA-MB-231 growth inhibition (footnote b); assay type: cell-based; details: Homo sapiens; entries 59-60: cell line MDA-MB-231; range within which the IC50 value falls; read-out: cancer cell line IC50 (MDA-MB-231)
MDA-MB-231 tumour = MDA-MB-231 tumour growth in mice; assay type: in vivo; details: 35 mg/kg/d (35 mg/kg/d for 3 days then 17.5 mg/kg/d for 3 days then none); 5 mice per group; FIG. 1
Protocol: The effect of 35 mg/kg/d CA4-P, compound entry 8, compound entry 9, compound entry 10 and compound entry 23 (administered at 35 mg/kg/d for 3 days then 17.5 mg/kg/d for 3 days then none) on MDA-MB-231 tumour growth is summarised in FIG. 1.
The effect of CA4-P and test compounds and saline on MDA-MB-231 tumour growth. Each group consisted of 5 mice. The data represent the mean tumour volume; bars SEM.

[2] = Homo sapiens, MCF7, concentration required to inhibit net cell growth by 50%
[3] = concentration required to inhibit net cell growth by 50%

Row | SMILES | IC50 (MCF-7, cancer cell line; [2]) [nM] | IC50 (MCF-7, cancer cell line; [3]) [nM] | IC50 (Tubulin) [nM] | IC50 [1] [nM] | IC50 (MDA-MB-231) [nM] | effect on MDA-MB-231 tumour growth (MDA-MB-231 tumour)
1 | COc1cc(C(=O)c2c(-c3nccs3)oc3c(O)c(OC)ccc23)cc(OC)c1OC [Entry 44, 7-Hydroxy-2-(2-thiazolyl)-3-(3,4,5-trimethoxybenzoyl)-6-methoxy-benzo[b]furan] | 0.37 | 0.32 | 2200 ± 400 | 0.1 to 1 | – | –
2 | COc1cc(C(=O)c2c(-c3cncn3C)oc3c(O)c(OC)ccc23)cc(OC)c1OC [Entry 59, 7-Hydroxy-6-methoxy-2-(3-methyl-3H-imidazol-4-yl)-3-(3,4,5-trimethoxybenzoyl)-benzo[b]furan] | – | – | – | 1 to 10 | 1 to 10 | –
3 | COc1ccc(-c2oc3c(O)c(OC)ccc3c2C(=O)c2cc(OC)c(OC)c(OC)c2)cc1 [Entry 4, reference compound] | 1 to 2 | – | 1500 ± 400 | – | – | –
4 | COc1cc(C(=O)c2c(-c3ccco3)oc3c(O)c(OC)ccc23)cc(OC)c1OC [Entry 36, 2-(2-furanyl)-7-hydroxy-6-methoxy-3-(3,4,5-trimethoxybenzoyl)benzo[b]furan] | – | – | 8700 ± 800 | 1 to 10 | – | –
5 | COc1ccc(/C=C\c2cc(OC)c(OC)c(OC)c2)cc1OP(=O)([O-])[O-].[Na+].[Na+] [CA4-P, combretastatin A4 disodium phosphate, reference compound] | – | – | – | – | – | effectively inhibited
6 | COc1ccc2c(C(=O)c3cc(OC)c(OC)c(OC)c3)c(-c3cnn(C)c3)oc2c1 [Entry 12, 6-Methoxy-2-(1-methyl-1H-pyrazol-4-yl)-3-(3,4,5-trimethoxybenzoyl)benzo[b]furan] | 3.9 | 4 | 1200 ± 40 | 1 to 10 | – | –
7 | COc1ccc2c(C(=O)c3cc(OC)c(OC)c(OC)c3)c(-c3ccc(OC)nc3)oc2c1 [Entry 11, 2-(6-Methoxy-pyridin-3-yl)-3-(3,4,5-trimethoxybenzoyl)-6-methoxy-benzofuran] | 70 | 72 | < 4000 | 10 to 100 | – | –
8 | COc1cc(C(=O)c2c(-c3cnn(C)c3)oc3c(OP(=O)([O-])[O-])c(OC)ccc23)cc(OC)c1OC.[Na+].[Na+] [Entry 23, 2-(4-N-methylpyrazolyl)-3-(3,4,5-trimethoxybenzoyl)-6-methoxy-7-O-disodiumphosphate-benzofuran] | – | – | – | – | – | effectively inhibited
9 | COc1ccc(-c2oc3c(O)c(OC)ccc3c2C(=O)c2cc(OC)c(OC)c(OC)c2)cc1O [Entry 5, reference compound] | 3.9 | 4.1 | < 4000 | – | – | –
10 | COc1cc(C(=O)c2c(-c3nn[nH]n3)oc3c(O)c(OC)ccc23)cc(OC)c1OC [Entry 57, 7-Hydoxy-6-methoxy-2-(2H-tetrazol-5-yl)-3-(3,4,5-trimethoxybenzoyl)-benzo[b]furan] | 10 to 100 | – | – | 10 to 100 | – | –
11 | COc1cc(C(=O)c2c(-c3ccc(C=O)s3)oc3c(O)c(OC)ccc23)cc(OC)c1OC [Entry 37, 2-(2-thiophene-5-carbaldehyde)-7-hydroxy-3-(3,4,5-trimethoxybenzoyl)-6-methoxy-benzo[b]furan] | 1.8 | 2.3 | – | 1 to 10 | – | –
12 | COc1cc(C(=O)c2c(-c3c[nH]nn3)oc3c(O)c(OC)ccc23)cc(OC)c1OC [Entry 58, 17-Hydroxy-6-methoxy-2-(2H-[1,2,3]triazol-4-yl)-3-(3,4,5-trimethoxybenzoyl)benzo[b]furan] | 1 to 10 | – | – | 1 to 10 | – | –
13 | COc1ccc2c(C(=O)c3cc(OC)c(OC)c(OC)c3)coc2c1 [Entry 6, reference compound] | 60 | 50 | 1600 ± 200 | – | – | –
14 | COc1cc(OC)cc(C(=O)c2c(-c3cnn(C)c3)oc3c(O)c(OC)ccc23)c1 [Entry 24, 2-(4-N-methylpyrazolyl)-3-(3,5-dimethoxybenzoyl)-6-methoxy-7-hydroxy-benzofuran] | 3.3 | 4.4 | – | 1 to 10 | – | –
15 | COc1cc(C(=O)c2c(-c3cnn(CC(C)C)c3)oc3c(O)c(OC)ccc23)cc(OC)c1OC [Entry 26, 2-(4-N-isobutyl-pyrazolyl)-7-hydroxy-3-(3,4,5-trimethoxy-benzoyl)-6-methoxy-benzo[b]furan] | 21 | 14 | – | 1 to 10 | – | –
16 | COc1cc(C(=O)c2c(-c3cnn(C)c3)oc3c(N)c(OC)ccc23)cc(OC)c1OC [Entry 21, 7-Amino-6-methoxy-2-(1-methyl-1H-pyrazol-4-yl)-3-(3,4,5-trimethoxybenzoyl)benzo[b]furan] | < 1 | 1.2 | 1500 ± 100 | 1 to 10 | – | –
17 | COc1ccc2c(C(=O)c3cc(OC)c(OC)c(OC)c3)c(-c3c[nH]cn3)oc2c1 [Entry 45, [2-(1H-Imidazol-4-yl)-6-methoxy-benzofuran-3-yl]-(3,4,5-trimethoxyphenyl)-methanone] | 4.5 | 5.7 | – | 1 to 10 | – | –
18 | COc1ccc2c(C(=O)c3cc(OC)c(OC)c(OC)c3)c(-c3cnn(CCN(C)C)c3)oc2c1 [Entry 42, {2-[1-(2-Dimethylamino-ethyl)-1H-pyrazol-4-yl]-6-methoxy-benzofuran-3-yl}-(3,4,5-trimethoxyphenyl)-methanone] | 300 | 310 | – | 100 to 1000 | – | –
19 | COc1ccc2c(C(=O)c3cc(OC)c(OC)c(OC)c3)c(-c3ccsc3)oc2c1 [Entry 18, 2-(3-Thiophenyl)-3-(3,4,5-trimethoxybenzoyl)-6-methoxy-benzo[b]furan] | 17 | 22 | – | 10 to 100 | – | –
20 | COc1cc(C(=O)c2c(-c3cnn(C)c3)oc3c(O)c(OC)ccc23)cc(OC)c1OC [Entry 14, 2-(4-N-Methylpyrazolyl)-3-(3,4,5-trimethoxybenzoyl)-6-methoxy-7-hydroxy-benzofuran] | – | – | 1300 ± 70 | 0.1 to 1 | – | –

Source: US8278290B2, “Tubulin polymerisation inhibitors” (Biononics Limited, priority 2005, dated 2012)
